CC50, EC50 and AC50 data for 42 compounds are collected here from ChEMBL document CHEMBL1201862, “PubChem BioAssay data set” (2004).

Active and inactive are the calls of the source.

Assay [1] in a line: viability of uninfected HEp-2 cells – cell-based, HTS, cytotoxicity control for RSV inhibitor project, dose response (AID 2410). It is filed as functional. The settings on record: human respiratory syncytial virus.
For assay [2], the target named is T1, Heat shock factor protein 1 (Mus musculus, UniProt P38532).
T1 sequence (P38532 whole entry): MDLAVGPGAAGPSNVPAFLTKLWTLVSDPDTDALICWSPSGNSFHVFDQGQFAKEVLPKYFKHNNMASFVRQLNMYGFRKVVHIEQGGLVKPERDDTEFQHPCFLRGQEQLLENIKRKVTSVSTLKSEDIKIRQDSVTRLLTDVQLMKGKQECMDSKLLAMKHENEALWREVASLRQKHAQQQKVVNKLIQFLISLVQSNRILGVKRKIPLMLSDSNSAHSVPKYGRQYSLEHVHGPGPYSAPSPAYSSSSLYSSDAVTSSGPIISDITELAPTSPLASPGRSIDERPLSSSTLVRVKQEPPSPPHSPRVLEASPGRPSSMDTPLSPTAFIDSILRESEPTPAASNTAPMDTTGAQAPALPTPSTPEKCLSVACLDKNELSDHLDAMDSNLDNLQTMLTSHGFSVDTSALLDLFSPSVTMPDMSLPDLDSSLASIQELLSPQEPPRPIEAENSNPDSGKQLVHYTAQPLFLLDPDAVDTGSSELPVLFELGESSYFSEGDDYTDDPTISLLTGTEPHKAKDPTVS
Briefly: decrease of HSF1-responsive luciferase luminescence – cell-based, NIH3T3, dose retest, confirmation (AID 2382).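 Further: NIH3T3 fibroblasts with HSF1-driven luciferase reporter stressed by proteasome inhibitor MG132; luminescence from HSF1-driven luciferase expression after 8 hours of MG132 stress.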 In kind it is functional.

Assay [3] can be described thus: NIH-3T3 fibroblast cytotoxicity, dose response, cytotoxicity control, cell-based, fluorescence, Alamar Blue, secondary assay (AID 2327).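 Further: NIH-3T3 mouse fibroblasts cultured with fluconazole at 8 µg/mL.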 In kind it is functional.
The nature of assay [4]: fluconazole-exposed Candida albicans growth modulators – fluorescence, retest, confirmation (AID 2467). It is filed as functional, cell-based.
Assay [5] is described as follows: Trypanosoma cruzi growth suppression in host cells – NIH3T3 host cells, beta-gal luminescence, confirmation (AID 2044).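 Further: intracellular parasites grown in NIH/3T3 mouse fibroblasts as host cells; luminescent beta-galactosidase reporter signal from transgenic T. cruzi replicating inside host cells; inhibitors lower the luminescence signal.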 In kind it is functional, cell-based.
The nature of assay [6]: NIH3T3 cell viability loss – ATP luminescence, mouse fibroblasts, counter-screen, dose response (AID 2010).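 Further: cells exposed to compound for about 90 hours before reading.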 It is filed as functional, cell-based.
The next assay concerns INS1. Briefly: INS-1E survival protection against cytokine death – cell-based, luminescence, retest, dose response (AID 449756).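 Further: cell death triggered by IL-1 beta plus TNF-alpha plus IFN-gamma mixture; protective hits raise ATP signal compared with cytokine alone wells.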 In kind it is functional. The settings on record: Rattus norvegicus.
A further assay deals with Cytochrome P450 2C19 (Homo sapiens, UniProt P33261). Briefly: Cytochrome panel assay with activity outcomes. Panel member name: p450-cyp2c19 Compounds with AC50 equal or less than 10 uM are considered active. In kind it is functional. The following applies: read-out: AC50.
In the next assay the target is T2, Cytochrome P450 1A2 (Homo sapiens, UniProt P05177).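 Further: PubChem cytochrome P450 panel assay, CYP1A2 panel member.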
T2 sequence (P05177 whole entry): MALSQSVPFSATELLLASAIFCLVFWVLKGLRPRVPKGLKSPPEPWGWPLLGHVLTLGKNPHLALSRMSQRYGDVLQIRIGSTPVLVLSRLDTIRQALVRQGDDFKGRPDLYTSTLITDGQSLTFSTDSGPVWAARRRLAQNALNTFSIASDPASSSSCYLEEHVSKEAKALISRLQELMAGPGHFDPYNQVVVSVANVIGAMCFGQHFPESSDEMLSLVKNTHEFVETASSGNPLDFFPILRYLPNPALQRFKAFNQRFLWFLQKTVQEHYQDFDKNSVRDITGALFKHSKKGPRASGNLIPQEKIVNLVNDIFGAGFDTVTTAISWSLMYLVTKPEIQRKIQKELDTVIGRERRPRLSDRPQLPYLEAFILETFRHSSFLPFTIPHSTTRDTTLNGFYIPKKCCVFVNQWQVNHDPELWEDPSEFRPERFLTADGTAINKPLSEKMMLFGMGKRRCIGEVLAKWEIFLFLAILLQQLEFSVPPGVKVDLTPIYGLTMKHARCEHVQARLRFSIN

A further assay concerns the target Cytochrome P450 3A4 (Homo sapiens, UniProt P08684).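 Further: CYP3A4 tested as one member of a cytochrome P450 panel screen.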
The next assay has as its target Cytochrome P450 2C9 (Homo sapiens, UniProt P11712).
The next assay concerns the target Cytochrome P450 2D6 (Homo sapiens, UniProt P10635).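 Further: CYP2D6 member of a cytochrome P450 panel assay.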
Assay [7] can be described thus: Luminescence Cell-Based Dose Confirmation HTS to Identify Activators of 5'UTR Stem-Loop Driven Alpha-Synuclein mRNA Translation in H4 Neuroglioblastoma Cells. [Related pubchem assays: 1829 (Project Summary), 1814 (Primary HTS)]. In kind it is functional.
The nature of assay [8]: Luminescence Cell-Based Dose Response HTS to Identify Activators of Luciferase Translation or Activity in H4 […] Cells. [Related pubchem assays: 1829 (Project Summary), 1814 (Primary HTS)]. In kind it is functional.
The subject of a further assay is H4. Briefly: Luminescence Cell-Based Dose Response HTS to Identify Activators of 5'UTR Stem-Loop Driven Prion Protein mRNA Translation in H4 Neuroglioblastoma Cells. [Related pubchem assays: 1829 (Project Summary), 1814 (Primary HTS)]. The following applies: Homo sapiens. In kind it is functional.
In assay [9] the target is T3, RNA-binding protein pos-1 (Caenorhabditis elegans, UniProt G5EF15).
T3 sequence (G5EF15 whole entry): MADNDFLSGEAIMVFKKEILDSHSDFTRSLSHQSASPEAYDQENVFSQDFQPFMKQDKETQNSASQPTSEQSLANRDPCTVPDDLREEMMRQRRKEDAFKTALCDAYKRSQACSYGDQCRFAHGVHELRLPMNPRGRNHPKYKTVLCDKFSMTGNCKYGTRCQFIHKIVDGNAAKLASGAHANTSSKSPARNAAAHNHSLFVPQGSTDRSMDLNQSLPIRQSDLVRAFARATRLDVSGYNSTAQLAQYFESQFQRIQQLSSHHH
Briefly: disruptors of C. elegans POS-1 RNA interaction – biochemical, fluorescence polarization, dose response (AID 1964).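 Further: purified POS-1 fused to maltose binding protein made in E. coli; potency of compounds blocking POS-1 binding to fluorescent RNA.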

Chain of Cytochrome P450 2D6 (P10635 whole entry): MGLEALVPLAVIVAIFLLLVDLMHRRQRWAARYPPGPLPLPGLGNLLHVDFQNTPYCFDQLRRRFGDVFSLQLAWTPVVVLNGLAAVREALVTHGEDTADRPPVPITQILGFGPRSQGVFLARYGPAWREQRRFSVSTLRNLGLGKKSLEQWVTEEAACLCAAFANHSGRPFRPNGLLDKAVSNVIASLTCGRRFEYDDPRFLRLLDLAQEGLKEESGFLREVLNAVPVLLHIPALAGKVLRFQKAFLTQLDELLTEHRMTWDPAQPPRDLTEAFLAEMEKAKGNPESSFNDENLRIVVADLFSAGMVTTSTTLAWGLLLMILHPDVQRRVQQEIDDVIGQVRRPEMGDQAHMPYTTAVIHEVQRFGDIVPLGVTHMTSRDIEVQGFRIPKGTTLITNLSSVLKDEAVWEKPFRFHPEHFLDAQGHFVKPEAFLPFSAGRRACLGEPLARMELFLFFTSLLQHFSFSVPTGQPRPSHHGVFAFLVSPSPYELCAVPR
Chain of Cytochrome P450 2C9 (P11712 whole entry): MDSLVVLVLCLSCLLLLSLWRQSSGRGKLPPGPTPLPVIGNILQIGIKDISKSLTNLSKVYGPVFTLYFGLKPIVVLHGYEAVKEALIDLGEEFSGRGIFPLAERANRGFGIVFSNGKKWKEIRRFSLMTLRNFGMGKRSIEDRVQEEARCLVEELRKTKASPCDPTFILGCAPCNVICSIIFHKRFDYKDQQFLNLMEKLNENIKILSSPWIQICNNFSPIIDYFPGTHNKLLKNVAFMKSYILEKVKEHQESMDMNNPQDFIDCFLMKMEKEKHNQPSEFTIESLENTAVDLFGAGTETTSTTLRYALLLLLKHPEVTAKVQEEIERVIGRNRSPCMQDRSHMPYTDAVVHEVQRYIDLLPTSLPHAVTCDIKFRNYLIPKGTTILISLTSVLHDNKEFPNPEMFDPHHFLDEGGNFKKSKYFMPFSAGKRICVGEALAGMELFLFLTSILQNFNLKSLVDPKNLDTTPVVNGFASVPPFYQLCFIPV
Chain of Cytochrome P450 3A4 (P08684 whole entry): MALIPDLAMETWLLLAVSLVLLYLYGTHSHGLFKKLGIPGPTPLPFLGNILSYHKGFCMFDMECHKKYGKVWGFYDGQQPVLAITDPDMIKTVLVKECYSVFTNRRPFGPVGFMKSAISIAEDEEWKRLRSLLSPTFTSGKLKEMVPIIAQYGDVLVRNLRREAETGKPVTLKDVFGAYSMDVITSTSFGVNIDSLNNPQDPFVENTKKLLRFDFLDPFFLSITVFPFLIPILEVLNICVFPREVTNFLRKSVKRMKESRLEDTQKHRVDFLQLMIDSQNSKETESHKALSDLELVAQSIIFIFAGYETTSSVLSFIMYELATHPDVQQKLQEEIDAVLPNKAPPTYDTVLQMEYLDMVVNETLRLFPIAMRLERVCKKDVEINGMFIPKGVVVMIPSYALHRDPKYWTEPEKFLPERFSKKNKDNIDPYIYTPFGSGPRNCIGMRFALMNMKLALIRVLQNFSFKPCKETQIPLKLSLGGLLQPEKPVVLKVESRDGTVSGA
Chain of Cytochrome P450 2C19 (P33261 whole entry): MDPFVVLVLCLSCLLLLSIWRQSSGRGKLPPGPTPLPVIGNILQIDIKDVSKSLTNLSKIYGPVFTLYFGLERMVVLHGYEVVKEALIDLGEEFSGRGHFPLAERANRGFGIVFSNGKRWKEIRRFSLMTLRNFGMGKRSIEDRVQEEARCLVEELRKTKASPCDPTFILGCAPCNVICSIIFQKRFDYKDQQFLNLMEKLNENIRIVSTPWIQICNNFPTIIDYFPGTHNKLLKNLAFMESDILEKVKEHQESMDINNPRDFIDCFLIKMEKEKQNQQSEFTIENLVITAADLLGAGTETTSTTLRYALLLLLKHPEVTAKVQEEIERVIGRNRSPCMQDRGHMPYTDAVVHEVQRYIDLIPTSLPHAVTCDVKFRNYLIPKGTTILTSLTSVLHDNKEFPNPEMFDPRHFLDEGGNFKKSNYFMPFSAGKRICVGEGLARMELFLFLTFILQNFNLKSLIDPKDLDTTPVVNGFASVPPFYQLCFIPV

As for `Cc1cccc(-c2nc(C#N)c(NCc3ccco3)o2)c1`, in assay [1], the CC50 is 42.9 µM (active).
Consider `CC(C)c1nc(SCc2c(F)cccc2Cl)c2c(=O)n(C)c(=O)n(C)c2n1`, for which, in [1], the CC50 is 7.44 µM (active). In assay [2], the EC50 is on record as > 195 µM (not active).
Regarding `Cc1ccc(-c2c[n+](CC(=O)N3c4ccccc4Sc4ccccc43)c3n2CCC3)cc1`, the EC50 in assay [3] is > 150 µM (inactive); in [4], 2.77 µM (active).
As for `CC(=O)c1cccc(Nc2nc(-c3sc(C)nc3C)cs2)c1`, the CC50 in [1] was > 50 µM (active).
For `CCN(Cc1ccccc1)C(c1cccs1)c1nnnn1C1CCCCC1` (configuration not stated), the values for the EC50 in assay [5] and in assay [6] were 3.97 µM (active) and 16.3 µM (active), respectively. The AC50 with INS1 is 9.27 µM (active).
Turning to `Oc1ccc(N2CCN(C(S)=NCCc3ccccc3)CC2)cc1`, the EC50 in [3] is > 150 µM (inactive); in assay [4] it was 0.177 µM (active).
On to `Cc1cc(Cl)ccc1Oc1cccc(C(=O)/C(C#N)=C/N(C)C)c1`, for which the CC50 in [1] was 29.1 µM (active).
As for `COc1ccc(-c2cc(C(F)(F)F)n3ncc(C(=O)NCC4CCCO4)c3n2)cc1OC` (configuration not stated), the AC50 is 14.1 µM (inconclusive) on Cytochrome P450 2C19, 5.01 µM (inconclusive) at Cytochrome P450 1A2, 3.55 µM (inconclusive) on Cytochrome P450 3A4 and 7.94 µM (inconclusive) at Cytochrome P450 2C9.
Consider `Cc1cccc(Cc2nnc(CCC(=O)N3CCCCC3c3nccs3)o2)c1` (configuration not stated), for which the results for the EC50 in [3] and in [4] were > 160 µM (inactive) and > 38 µM (not active), respectively.
For the compound `CSc1nnc(C)c(/C=C/Nc2ccc(Cl)cc2)n1`, the CC50 in assay [1] was > 50 µM (active).
Take `Cc1cccc(C)c1NC(=O)/C(C#N)=C/c1cccs1`: the AC50 on Cytochrome P450 2D6 was 6.31 µM (inconclusive).
Take `COc1ccc(CCNC(=O)c2ccc3c(c2)N(Cc2ccc(C)cc2)CCS3)cc1OC`: in [1], the CC50 is 35.9 µM (active).
Regarding `COc1ccc(C(=O)/C=C/c2ccccc2OC)c(OC(=O)c2ccc([N+](=O)[O-])cc2)c1`, the CC50 in assay [1] was 19.1 µM (active). Further, the values for the EC50 (in assay [7]; in assay [8]; in the assay on H4) were 17.3 µM (active), 23.8 µM (active) and 54.1 µM (inconclusive), respectively.
As to `Fc1ccc(Cn2nnnc2CN2CCC(n3nnc4cc(C(F)(F)F)ccc43)CC2)cc1`, in assay [1], the CC50 was 15 µM (active).
In the case of `CN/C(=N/C#N)NCCSC[C@H]1N=CN=C1C`, at Cytochrome P450 2D6, the AC50 is 10 µM (inconclusive).
For the compound `Cc1oc2c(cc(NS(=O)(=O)c3cccs3)c3ccccc32)c1C(=O)OC(C)C`, the CC50 in assay [1] was 20.3 µM (active).
On to `Cc1cc2[nH]c(=O)c(=O)[nH]c2cc1S(=O)(=O)N1CCN(c2ccccc2F)CC1`, for which the EC50 is > 150 µM (inactive) in assay [3] and > 38 µM (not active) in assay [4].
Regarding `O=C(CCCl)N(Cc1nc(O)c2ccccc2n1)Cc1cccs1`, the EC50 in assay [3] is > 160 µM (inactive); in [4], > 38 µM (not active).
`COc1cc2c(cc1OC)C(NC(=O)C(F)(F)F)CNC2=O` (configuration not stated): the concentration at half-maximal activity (AC50) in the assay on INS1 is > 260 µM (inconclusive).
With `FC(F)(F)c1cnc(NN=C(S)Nc2ccc(Cl)cc2)c(Cl)c1`, in the assay with INS1, the AC50 was 3.44 µM (active).
Regarding `O=NN(CCc1ccncc1)c1ccc(OCc2ccccc2)cc1`, the AC50 with INS1 was 6.05 µM (active).
In the case of `O=C(Nc1ccc(C(=O)Nc2ccccc2Cl)cc1)c1cccnc1`, the AC50 in the assay on INS1 was 1.06 µM (active).
Turning to `O=C(c1cc2c(s1)-c1ccccc1OC2)N1CCC2(CC1)OCCO2`, the EC50 in assay [3] was 43.1 µM (active); in assay [4], 2.9 µM (active).
For `CCOC(=O)CSc1ccc(C(=O)N2CCN(C)CC2)cc1[N+](=O)[O-]`, the EC50 is > 160 µM (inactive) in assay [3] and > 38 µM (not active) in [4].
In the case of `O=C(COC(=O)c1cn(-c2ccccc2)nc1-c1ccccc1)c1cccc([N+](=O)[O-])c1`, the AC50 with INS1 was 4.4 µM (active).
Consider `CCCCSc1ccc(NC(=O)c2cccnc2)cc1`, for which the AC50 in the assay with INS1 is 8.46 µM (active).
As for `N#Cc1nc(Cc2ccccc2)oc1NCCc1ccccc1`, the CC50 in assay [1] was 28.9 µM (active). Also, the EC50 was 4.71 µM (active) in [7], 56.9 µM (active) in assay [8] and 14.5 µM (active) in the assay on H4.
As to `COc1cc(C2C(C#N)=C(N)N(c3ccc(F)cc3)C3=C2S(=O)(=O)CC3)ccc1O` (configuration not stated), the EC50 in assay [3] is > 160 µM (inactive); in assay [4], > 38 µM (not active).
`CCCn1c(CC)nc([N+](=O)[O-])c1Sc1ccc(F)cc1`: the EC50 in assay [3] is 16.3 µM (active); in assay [4], > 38 µM (not active).
For the compound `CCOc1ccccc1NC(=O)c1cc(S(=O)(=O)N2CCC3(CC2)OCCO3)ccc1F`, the EC50 is > 160 µM (inactive) in assay [3] and > 38 µM (not active) in assay [4].
Turning to `CN1CC2([N+](=O)[O-])CC=C(OCCO)C([N+](=O)[O-])(C1)C2` (configuration not stated), the EC50 in assay [3] was > 150 µM (inconclusive); in assay [4], > 38 µM (not active).
In the case of `COc1cc(OC)cc(C(=O)NC(=S)NCCc2ccccc2)c1`, the AC50 at Cytochrome P450 2D6 is 10 µM (inconclusive).
As for `COc1c(C)cc(Br)cc1C(=O)Nc1ccccc1N1CCN(C(=O)c2ccccc2)CC1`, the CC50 in assay [1] was 31.5 µM (active). In addition, the EC50 is 2.52 µM (active) in [5] and > 60 µM (not active) in assay [6].
For `Oc1nc(SCc2ccccc2F)nc2ccccc12`, the EC50 in assay [3] is > 150 µM (inactive); in assay [4], 1.26 µM (active).
Consider `Brc1ccc(-c2ncc3ccccn23)cc1`, for which the CC50 in assay [1] was 29.9 µM (active).
`CCOC(=O)C1(Cc2cccc(Cl)c2)CCCN(C(=O)c2ccc(COC)s2)C1` (configuration not stated): in the assay on INS1, the AC50 is > 260 µM (inactive).
For `C/C(=N\N=C(/N)SC1CC(=O)N(c2cccc(Cl)c2)C1=O)c1cccs1` (configuration not stated), the CC50 in assay [1] was 19.4 µM (active).
Regarding `O=C(N/N=C/c1ccc(Sc2nc3ccccc3s2)c([N+](=O)[O-])c1)c1ccccn1`, the values for the AC50 at Cytochrome P450 2C19, on Cytochrome P450 3A4 and at Cytochrome P450 2C9 were 7.08 µM (inconclusive), 3.55 µM (inconclusive) and 0.00562 µM (inconclusive), respectively.
Regarding `CC(=O)/N=c1\c(C#N)cc2c(=O)n3cccc(C)c3nc2n1CCCOC(C)C`, the EC50 in [9] is given as > 300 µM (not active).
As to `O=c1cc(-c2ccccc2)c2ccc(O)cc2o1`, the figures for the EC50 in [3], in assay [2] and in assay [4] were > 160 µM (inconclusive), 117 µM (active) and 2.12 µM (active), respectively.
In the case of `C[C@]12CC[C@@H]3c4ccc(O)cc4CC[C@H]3[C@@H]1CCC2=O` [ESTRONE], the CC50 in assay [1] is 33 µM (active).
In the case of `C=C1C[C@H]2[C@@H]3C=C(C)C4=CC(=O)CC[C@]4(C)[C@H]3CC[C@]2(C)[C@@]1(OC(C)=O)C(C)=O` [MELENGESTROL ACETATE], the CC50 in [1] is 26.5 µM (active).
